Assay results as given in publication PMC11161800, “Principles of peptide selection by the transporter associated with antigen processing” (Proceedings of the National Academy of Sciences of the …, 2024).

Test system: human TAP
Test: NADH-coupled steady-state ATP hydrolysis (ATPase) assay of purified TAP
Type: biochemical
Settings: 28 °C; for Stimulation of ATP hydrolysis by shortened b27 peptides: TAP 0.5 µM, peptides 20 µM, ATP 3 mM, means of three technical replicates of three biological replicates (n = 9), one-way ANOVA, Fig. 4A
Experimental: Steady-state ATP hydrolysis activity was measured using a nicotinamide adenine dinucleotide (NADH)-coupled assay. Purified TAP was diluted to a final concentration of 0.5 µM in freshly prepared reaction buffer containing 50 mM HEPES (pH 8.0 with KOH), 150 mM KCl, 2 mM MgCl2, 2 mM DTT, 0.004% (w/v) digitonin, 60 µg mL^−1 pyruvate kinase (Roche), 32 µg mL^−1 lactate dehydrogenase (Roche), 9 mM phosphoenolpyruvate and 150 µM NADH. Peptide substrates were added to a final concentration of 20 µM unless specified otherwise. Then, 30 µL aliquots were dispensed into Corning 384-well Black/Clear Flat Bottom Polystyrene NBS Microplates, and reactions were initiated by the addition of 3 mM ATP. NADH consumption was measured by monitoring the rate of NADH fluorescence depletion at λex = 340 nm and λem = 445 nm at 28 °C using an Infinite M1000 microplate reader (Tecan). Data were converted to ATP turnover with an NADH standard curve. Technical replicates were measured in parallel from the same protein preparation on the same day and biological replicates were measured from different protein preparations from different cells on different days.

Substance | Stimulation of ATP hydrolysis by shortened b27 peptides | Stimulation of ATP hydrolysis by shortened b27 peptides (listed as B27′) | ATPase activity as a function of b27 concentration (0.5 µM TAP, 3 mM ATP, pH 8.0, three technical replicates (n = 3), Fig. 1B)
RRYQSTEL [b27′, 8-mer modified b27 peptide lacking the central lysine at position five] | stimulated ATP hydrolysis | increased the ATPase activity of TAP to a slightly greater extend compared to b27 | 
b27: 9-mer peptide RRYQKSTEL, well-characterized substrate transported by TAP and presented by HLA-B27 [reference compound] |  |  | stimulated in a dose-dependent manner
b27″(Q): 7-mer modified b27 peptide lacking the lysine and the adjacent serine (RRYQTEL) | neither of the 7-mer peptides were able to stimulate ATP hydrolysis and not |  | 
RRYSTEL [b27″, 7-mer modified b27 peptide lacking the lysine and the adjacent glutamine] | neither of the 7-mer peptides were able to stimulate ATP hydrolysis and not |  | 
